In US20030171218A1, “Substituted 3-heteroaryl(amino- or oxy)pyrrolidin-2-ones, their preparation and use as herbicides or plant growth regulators” (priority 2001, published 2003):

Assays:
[1] = tested on: harmful plants such as Digitaria sanguinalis, Echinochloa crus-galli, Setaria faberi, Setaria viridis, Sorghum halepense, Abutilon theophrasti, Amaranthum …; experiment: Post-emergence effect on weeds (greenhouse pot test); assay type: in vivo, monocotyledonous and dicotyledonous weeds; details: application rate of 1 kg and less of active substance per hectare; treated at three-leaf stage; scored visually after about 3 to 4 weeks by comparison with untreated controls
Protocol: Seeds or rhizome pieces of monocotyledonous and dicotyledonous weeds are placed in sandy loam soil in plastic pots, covered with soil and grown in a greenhouse under good growth conditions. Three weeks after sowing, the test plants are treated at the three-leaf stage. The compounds according to the invention which were formulated as wettable powders or emulsion concentrates are sprayed, at various dosages, onto the green parts of the plants at an application rate of 600 to 800 l of water/ha (converted). After the test plants have remained in the greenhouse for about 3 to 4 weeks under optimum growth conditions, the effect of the preparations is scored visually by comparison with untreated controls. The agents according to the invention also have good herbicidal activity post-emergence against a broad spectrum of economically important weed grasses and broad-leafed weeds.

[2] = tested on: weed plants such as Digitaria sanguinalis, Echinochloa crus-galli, Setaria faberi, Setaria viridis, Sorghum halepense, Abutilon theophrasti, Amaranthum …; experiment: Pre-emergence effect on weeds (greenhouse pot test); assay type: in vivo, monocotyledonous and dicotyledonous weed plants; details: application rate of 1 kg or less of active substance per hectare; scored visually after 3 to 4 weeks by comparison with untreated controls
Source text: Seeds or rhizome pieces of monocotyledonous and dicotyledonous weed plants are placed in sandy loam soil in plastic pots and covered with soil. The compounds according to the invention which are formulated in the form of wettable powders or emulsion concentrates are then applied to the surface of the soil cover in the form of aqueous suspensions or emulsions at an application rate of 600 to 800 l of water/ha (converted), in various dosages.
After the treatment, the pots are placed in a greenhouse and kept under good growth conditions for the weeds. After the test plants have emerged, the damage to the plants or the negative effect on the emergence is scored visually after a test period of 3 to 4 weeks by comparison with untreated controls. As shown by the test results, compounds according to the invention have good herbicidal pre-emergence activity against a broad spectrum of weed grasses and broad-leafed weeds.

| SMILES | herbicidal activity post-emergence [1] | herbicidal activity pre-emergence [2] |
| --- | --- | --- |
| Cc1cccc(N2CCC(Oc3nc(N)nc(C(C)(C)F)n3)C2=O)c1 (stereo not drawn) [Example A56] | very good herbicidal activity | very good herbicidal activity |
| CC(F)c1nc(N)nc(NC2CCN(c3cccc(Cl)c3)C2)n1 (stereo not drawn) [Example E17] | very good herbicidal activity | very good herbicidal activity |
| Cc1cc(C)cc(N2CCC(Nc3nc(N)nc(C(C)F)n3)C2=O)c1 (stereo not drawn) [Example A14] | very good herbicidal activity | very good herbicidal activity |
| Cc1cc(N2CCC(Nc3nc(N)nc(C(C)C)n3)C2=O)ccc1F (stereo not drawn) [Example A24] | very good herbicidal activity | very good herbicidal activity |
| CC(C)c1nc(N)nc(OC2CCN(C(C)(C)c3cccc(Cl)c3)C2=O)n1 (stereo not drawn) [Example F2] | very good herbicidal activity | very good herbicidal activity |
| CC(C)c1nc(N)nc(NC2CCN(c3cccc(F)c3)C2)n1 (stereo not drawn) [Example E15] | very good herbicidal activity | very good herbicidal activity |
| Cc1nc(N)nc(NC2CCN(c3cccc(C(F)(F)F)c3)C2=O)n1 (stereo not drawn) [Example A3] | very good herbicidal activity | very good herbicidal activity |
| Cc1cc(N2CCC(Nc3nc(N)nc(C(C)(C)F)n3)C2=O)ccc1F (stereo not drawn) [Example A29] | very good herbicidal activity | very good herbicidal activity |
| COc1cccc(N2CCC(Oc3nc(N)nc(C(C)F)n3)C2=O)c1 (stereo not drawn) [Example A41] | very good herbicidal activity | very good herbicidal activity |
| COc1cccc(N2CCC(N(C)c3nc(N)nc(C(C)(C)F)n3)C2=O)c1 (stereo not drawn) [Example A77] | very good herbicidal activity | very good herbicidal activity |
| CC(C)(F)c1nc(N)nc(OC2CCN(c3cccc(F)c3)C2=O)n1 (stereo not drawn) [Example A62] | very good herbicidal activity | very good herbicidal activity |
| Cc1cc(C)cc(N2CCC(Nc3nc(C)nc(N)n3)C2=O)c1 (stereo not drawn) [Example A5] | very good herbicidal activity | very good herbicidal activity |
| Cc1cccc(N2CCC(Nc3nc(N)nc(C(C)F)n3)C2=O)c1 (stereo not drawn) [Example A13] | very good herbicidal activity | very good herbicidal activity |
| CC(C)c1nc(N)nc(NC2CCN(c3cccc(F)c3)C2=O)n1 (stereo not drawn) [Example A19] | very good herbicidal activity | very good herbicidal activity |
| Cc1cc(C)cc(N2CCC(N(C)c3nc(N)nc(C(C)(C)F)n3)C2)c1 (stereo not drawn) [Example E50] | very good herbicidal activity | very good herbicidal activity |
| CC(F)c1nc(N)nc(N(C)C2CCN(c3cccc(OC(F)(F)F)c3)C2)n1 (stereo not drawn) [Example E58] | very good herbicidal activity | very good herbicidal activity |
| Cc1cccc(N2CCC(Nc3nc(N)nc(C(C)C)n3)C2=O)c1 (stereo not drawn) [Example A22] | very good herbicidal activity | very good herbicidal activity |
| Cc1cc(N2CCC(Nc3nc(N)nc(C(C)F)n3)C2=O)ccc1F (stereo not drawn) [Example A15] | very good herbicidal activity | very good herbicidal activity |
| CC(C)c1nc(N)nc(N(C)C2CCN(c3cccc(F)c3)C2=O)n1 (stereo not drawn) [Example A76] | very good herbicidal activity | very good herbicidal activity |
| Cc1cc(C)cc(N2CCC(N(C)c3nc(N)nc(C(C)C)n3)C2)c1 (stereo not drawn) [Example E68] | very good herbicidal activity | very good herbicidal activity |
| CC(C)(F)c1nc(N)nc(NC2CCN(c3ccccc3)C2=O)n1 (stereo not drawn) [Example A35] | very good herbicidal activity | very good herbicidal activity |

| SMILES | herbicidal activity post-emergence [1] | herbicidal activity pre-emergence [2] |
| --- | --- | --- |
| Cc1nc(N)nc(NC2CCN(c3cccc(OC(F)(F)F)c3)C2=O)n1 (stereo not drawn) [Example A8] | very good herbicidal activity | very good herbicidal activity |
| Cc1cc(N2CCC(Oc3nc(N)nc(C(C)(C)F)n3)C2=O)ccc1F (stereo not drawn) [Example A58] | very good herbicidal activity | very good herbicidal activity |
| Cc1cccc(N2CCC(Nc3nc(C)nc(N)n3)C2=O)c1 (stereo not drawn) [Example A4] | very good herbicidal activity | very good herbicidal activity |
| CC(C)(F)c1nc(N)nc(OC2CCN(C(C)(C)c3cccc(Cl)c3)C2=O)n1 (stereo not drawn) [Example F3] | very good herbicidal activity | very good herbicidal activity |
| CC(C)(F)c1nc(N)nc(NC2CCN(c3cccc(OC(F)(F)F)c3)C2)n1 (stereo not drawn) [Example E22] | very good herbicidal activity | very good herbicidal activity |
| CC(C)c1nc(N)nc(N(C)C2CCN(c3cccc(C(F)(F)F)c3)C2=O)n1 (stereo not drawn) [Example A70] | very good herbicidal activity | very good herbicidal activity |
| CC(C)(F)c1nc(N)nc(NC2CCN(c3cccc(Cl)c3)C2=O)n1 (stereo not drawn) [Example A36] | very good herbicidal activity | very good herbicidal activity |
| Cc1cc(C)cc(N2CCC(N(C)c3nc(N)nc(C(C)F)n3)C2)c1 (stereo not drawn) [Example E59] | very good herbicidal activity | very good herbicidal activity |
| CC(F)c1nc(N)nc(N(C)C2CCN(c3cccc(Cl)c3)C2)n1 (stereo not drawn) [Example E64] | very good herbicidal activity | very good herbicidal activity |
| COc1cccc(N2CCC(Nc3nc(N)nc(C(C)(C)F)n3)C2=O)c1 (stereo not drawn) [Example A30] | very good herbicidal activity | very good herbicidal activity |
| CC(C)c1nc(N)nc(NC2CCN(c3cccc(Cl)c3)C2=O)n1 (stereo not drawn) [Example A27] | very good herbicidal activity | very good herbicidal activity |
| Cc1cc(N2CCC(Nc3nc(N)nc(C(C)(C)F)n3)C2)ccc1F (stereo not drawn) [Example E10] | very good herbicidal activity | very good herbicidal activity |
| Cc1cc(N2CCC(Nc3nc(N)nc(C(C)C)n3)C2)ccc1F (stereo not drawn) [Example E12] | very good herbicidal activity | very good herbicidal activity |
| CC(C)(F)c1nc(N)nc(NC2CCN(c3cccc(F)c3)C2)n1 (stereo not drawn) [Example E13] | very good herbicidal activity | very good herbicidal activity |
| CN(c1nc(N)nc(C(C)(C)F)n1)C1CCN(c2cccc(Cl)c2)C1=O (stereo not drawn) [Example A79] | very good herbicidal activity | very good herbicidal activity |
| Cc1cc(C)cc(N2CCC(N(C)c3nc(N)nc(C(C)C)n3)C2=O)c1 (stereo not drawn) [Example A71] | very good herbicidal activity | very good herbicidal activity |
| COc1cccc(N2CCC(Nc3nc(N)nc(C(C)F)n3)C2=O)c1 (stereo not drawn) [Example A16] | very good herbicidal activity | very good herbicidal activity |
| COc1cccc(N2CCC(Nc3nc(N)nc(C(C)C)n3)C2=O)c1 (stereo not drawn) [Example A25] | very good herbicidal activity | very good herbicidal activity |
| Cc1cc(C)cc(N2CCC(N(C)c3nc(N)nc(C(C)(C)F)n3)C2=O)c1 (stereo not drawn) [Example A78] | very good herbicidal activity | very good herbicidal activity |
| CC(F)c1nc(N)nc(N(C)C2CCN(c3cccc(C(F)(F)F)c3)C2)n1 (stereo not drawn) [Example E57] | very good herbicidal activity | very good herbicidal activity |
| Cc1cc(C)cc(N2CCC(Oc3nc(N)nc(C(C)F)n3)C2=O)c1 (stereo not drawn) [Example A39] | very good herbicidal activity | very good herbicidal activity |
